The experiment deals with His-tagged p53-Y220C DNA binding domain (Homo sapiens, UniProt P04637, Y220C). Briefly: Biochemical p53-Y220C and DNA binding assay (HTRF). To be noted: inflection point of 10 points dose titration, 4 parameter curve fit; p53-Y220C DBD 100 nM, biotinylated dsDNA 200 nM, 27 to 29° C.; read-out: HTRF IP. In outline: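 DBD (aa 94-312, 100 nM) mixed with compound and biotinylated consensus dsDNA (200 nM) in DPBS/20 mM NaCl/0.5% BSA, overnight at 4 °C, then 60 min at 27-29 °C; anti-His Tb/streptavidin-d2 HTRF read. Activation normalized to reference compound (500%) and DMSO (0%); 10-point curve, inflection point reported.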
On the technique in general: In TR-FRET formats the signal depends on donor and acceptor labels being close together.
With `F[C@H]1CNC[C@H]1Nc1cccc2c(CC(F)(F)F)c(/C=N/OCc3ccccn3)sc12` [Example 3-3, (E)-7-(((3R,4S)-4-fluoropyrrolidin-3-yl)amino)-3-(2,2,2-trifluoroethyl)benzo[b]thiophene-2-carbaldehyde O-pyridin-2-ylmethyl oxime], the EC50 was in the range of 100 to 1000 nM. On to `F[C@H]1CNC[C@H]1Nc1cccc2c(CC(F)(F)F)c(/C=N/OCc3cccnc3)sc12` [Example 3-2, (E)-7-(((3R,4S)-4-fluoropyrrolidin-3-yl)amino)-3-(2,2,2-trifluoroethyl)benzo[b]thiophene-2-carbaldehyde O-pyridin-3-ylmethyl oxime], for which the EC50 was < 100 nM.

For `CS(=O)(=O)N1CC(O)C(O/N=C/c2sc3c(N[C@@H]4CNC[C@@H]4F)cccc3c2CC(F)(F)F)C1` (stereo partly drawn) [Example 1-38, (E)-7-(((3R,4S)-4-fluoropyrrolidin-3-yl)amino)-3-(2,2,2-trifluoroethyl)benzo[b]thiophene-2-carbaldehyde O-(4-hydroxy-1-(methylsulfonyl)pyrrolidin-3-yl) oxime], the EC50 was 100 to 1000 nM. Turning to `CN1CC[C@@H](Nc2cccc3c(CC(F)(F)F)c(/C=C/C(O)c4cnn(CC5CC5)c4)sc23)[C@@H](F)C1` (stereo partly drawn) [Example 5-7, (E)-1-(1-(cyclopropylmethyl)-1H-pyrazol-4-yl)-3-(7-(((3S,4R)-3-fluoro-1-methylpiperidin-4-yl)amino)-3-(2,2,2-trifluoroethyl)benzo[b]thiophen-2-yl)prop-2-en-1-ol], the EC50 lay in the range of 100 to 1000 nM. For `CN1CC[C@@H](Nc2cccc3c(CC(F)(F)F)c(/C=C/CNC(=O)C4CC4)sc23)[C@@H](F)C1` [Example 6-1, N-((E)-3-(7-(((3S,4R)-3-fluoro-1-methylpiperidin-4-yl)amino)-3-(2,2,2-trifluoroethyl)benzo[b]thiophen-2-yl)allyl)cyclopropanecarboxamide], the EC50 lay in the range of 100 to 1000 nM. Regarding `CC(C)N1C[C@H](F)[C@H](Nc2cccc3c(CC(F)(F)F)c(/C=N/OCC(C)(C)O)sc23)C1` [Example 2-22, (E)-7-(((3R,4S)-4-fluoro-1-isopropylpyrrolidin-3-yl)amino)-3-(2,2,2-trifluoroethyl)benzo[b]thiophene-2-carbaldehyde O-(2-hydroxy-2-methylpropyl) oxime], the EC50 was < 100 nM. The result for `OC1(CO/N=C/c2sc3c(N[C@@H]4CNC[C@@H]4F)cccc3c2CC(F)(F)F)CCCOC1` (stereo partly drawn) [Example 1-15, (E)-7-(((3R,4S)-4-fluoropyrrolidin-3-yl)amino)-3-(2,2,2-trifluoroethyl)benzo[b]thiophene-2-carbaldehyde O-((3-hydroxytetrahydro-2H-pyran-3-yl)methyl) oxime] reads 100 to 1000 nM; that for `OC1(CO/N=C/c2sc3c(N[C@@H]4CNC[C@@H]4F)cccc3c2CC(F)(F)F)CCNC1` (stereo partly drawn) [Example 1-12, (E)-7-(((3R,4S)-4-fluoropyrrolidin-3-yl)amino)-3-(2,2,2-trifluoroethyl)benzo[b]thiophene-2-carbaldehyde O-((3-hydroxypyrrolidin-3-yl)methyl) oxime], 100 to 1000 nM.
